In this experiment the test system is patients with type 2 diabetes. The experiment can be described thus: Randomized, double-blind, two-period crossover clinical study of 100 mg vildagliptin once daily in the morning or the evening. The format is in vivo, human.

Take `N#C[C@@H]1CCCN1C(=O)CNC12CC3CC(CC(O)(C3)C1)C2` [vildagliptin, (S)-1-[(3-hydroxy-1-adamantyl)amino]acetyl-2-cyano-pyrrolidine]: where the note is “administered before or with the evening meal, especially patients with baseline HbA1c>8.0%”, the “overnight HGP (hepatic glucose production) reduction” value was “unexpected additional benefit on the overnight HGP reduction”. The “overnight hepatic glucose production” value (at least 100 mg before or with the morning meal, or before or with the lunch, type 2 diabetes, especially baseline HbA1c>8.0%) is recorded as “can be reduced”.
